Values of other authors in patent US10918126B2, “Isotopically modified compounds and their use as food supplements” (Retrotope, Inc., priority 2006, dated 2021).
Where two headings read alike, the source gives them in different places.

What was measured:
[1] = target: liver alcohol dehydrogenase (ADH); conditions: ethanol oxidation by ADH to acetaldehyde

In the case of (1-R)[1-^2H2]— ethanol, the “kinetic isotope effect D(V/K)” value ([1]; pH 6) is given as 3 and the “kinetic isotope effect D(V/K)” value ([1]; pH 9) is given as 1.5.

For (1-R)[I—^3H2]— ethanol, the “kinetic isotope effect T(V/K)” value ([1]; pH 6) is given as 6.5 and the “kinetic isotope effect T(V/K)” value ([1]; pH 9) is given as 2.5.

In the case of deuterated ethanol, the “mean value of D(V/K)” value (perfused rat liver) is listed as 2.89.
